From ChEMBL document CHEMBL1201862, “PubChem BioAssay data set” (2004) come the findings set out here.

Data set [1] deals with Glucose-6-phosphate 1-dehydrogenase (Homo sapiens, UniProt P11413). As to the kind of experiment: human G6PD enzyme inhibitors, dose response, selectivity assay for P. falciparum G6PD inhibitor project, biochemical, fluorescence (AID 504792). Format: functional.
Data set [2] addresses T1, Cytochrome P450 3A4 (Homo sapiens, UniProt P08684).
Another data set addresses T2, Cytochrome P450 1A2 (Homo sapiens, UniProt P05177).
T2 sequence (P05177 whole entry): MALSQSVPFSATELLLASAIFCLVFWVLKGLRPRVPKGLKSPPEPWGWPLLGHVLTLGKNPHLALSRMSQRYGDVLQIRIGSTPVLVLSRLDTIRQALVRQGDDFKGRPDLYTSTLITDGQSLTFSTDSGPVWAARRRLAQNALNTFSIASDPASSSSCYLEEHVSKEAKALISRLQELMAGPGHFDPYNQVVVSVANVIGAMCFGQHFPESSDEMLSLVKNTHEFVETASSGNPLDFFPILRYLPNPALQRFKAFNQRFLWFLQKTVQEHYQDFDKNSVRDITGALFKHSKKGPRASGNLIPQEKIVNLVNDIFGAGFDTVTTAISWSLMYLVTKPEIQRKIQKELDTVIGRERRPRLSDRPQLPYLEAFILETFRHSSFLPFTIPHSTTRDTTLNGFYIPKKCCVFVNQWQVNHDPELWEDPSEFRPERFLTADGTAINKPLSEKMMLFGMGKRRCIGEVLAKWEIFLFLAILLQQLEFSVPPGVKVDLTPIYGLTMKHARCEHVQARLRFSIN

The target in data set [3] is T3, Polyadenylate-binding protein 1 (Homo sapiens, UniProt P11940). Kind of data set: PABP1 MLLE–PAM2 binding inhibitor potency, dose response, biochemical, fluorescence polarization, FITC-PAM2 peptide (AID 602259). To be noted: read-out: IC50_Mean. Format: functional.
T3 sequence (P11940 whole entry, the tested form may be a part): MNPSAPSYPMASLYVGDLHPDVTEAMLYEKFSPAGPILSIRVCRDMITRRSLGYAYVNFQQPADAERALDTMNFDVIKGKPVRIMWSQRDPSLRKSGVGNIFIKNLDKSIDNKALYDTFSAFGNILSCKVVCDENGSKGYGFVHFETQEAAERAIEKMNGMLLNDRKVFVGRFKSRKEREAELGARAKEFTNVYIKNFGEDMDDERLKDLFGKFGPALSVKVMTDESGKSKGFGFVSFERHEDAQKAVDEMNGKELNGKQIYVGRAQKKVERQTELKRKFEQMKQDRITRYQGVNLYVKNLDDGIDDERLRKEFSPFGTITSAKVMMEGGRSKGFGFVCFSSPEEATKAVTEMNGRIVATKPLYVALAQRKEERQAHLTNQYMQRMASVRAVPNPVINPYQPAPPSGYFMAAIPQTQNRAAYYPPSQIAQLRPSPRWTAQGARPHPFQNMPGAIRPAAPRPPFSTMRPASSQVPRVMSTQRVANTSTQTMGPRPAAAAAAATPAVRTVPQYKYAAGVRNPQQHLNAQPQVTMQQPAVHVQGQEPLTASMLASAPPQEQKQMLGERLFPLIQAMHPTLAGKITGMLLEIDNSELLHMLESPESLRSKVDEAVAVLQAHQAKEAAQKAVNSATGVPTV
Data set [4] addresses Disintegrin and metalloproteinase domain-containing protein 17 (Homo sapiens, UniProt P78536). As to the kind of experiment: exosite inhibitors of ADAM17, dose response, biochemical (AID 743260).
Data set [5] addresses T3, Polyadenylate-binding protein 1. As to the kind of experiment: PABP1 MLLE–PAM2 interaction inhibitors, dose response, miRNA deadenylation inhibitor project, biochemical, fluorescence polarization, Cy5-PAM2 peptide, secondary (AID 602260). In kind it is functional. To be noted: read-out: IC50_Mean.
Data set [6] addresses T4, High affinity choline transporter 1 (Homo sapiens, UniProt Q9GZV3).
T4 sequence (Q9GZV3 whole entry): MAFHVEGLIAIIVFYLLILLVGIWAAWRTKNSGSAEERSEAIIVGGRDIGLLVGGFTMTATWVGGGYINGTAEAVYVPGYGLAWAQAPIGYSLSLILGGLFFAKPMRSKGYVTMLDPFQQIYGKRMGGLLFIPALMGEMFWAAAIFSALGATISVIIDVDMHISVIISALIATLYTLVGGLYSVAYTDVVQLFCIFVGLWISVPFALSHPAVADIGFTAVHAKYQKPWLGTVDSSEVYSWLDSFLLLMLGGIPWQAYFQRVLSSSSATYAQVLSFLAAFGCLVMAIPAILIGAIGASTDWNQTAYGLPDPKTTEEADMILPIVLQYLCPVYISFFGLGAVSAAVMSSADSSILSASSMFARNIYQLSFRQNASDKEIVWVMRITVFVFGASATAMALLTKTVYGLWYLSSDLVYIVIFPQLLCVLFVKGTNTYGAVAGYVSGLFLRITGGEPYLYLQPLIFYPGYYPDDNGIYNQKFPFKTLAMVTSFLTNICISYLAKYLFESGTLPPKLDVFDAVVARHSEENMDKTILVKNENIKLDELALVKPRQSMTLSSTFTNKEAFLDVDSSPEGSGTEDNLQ
Kind of data set: CHT inhibitors, dose response, cell-based, 5-point CRC, membrane potential dye (AID 504840). Format: functional.

The target in data set [7] is T5, Calpain-2 catalytic subunit (Sus scrofa, UniProt P43367).
T5 sequence (P43367 whole entry): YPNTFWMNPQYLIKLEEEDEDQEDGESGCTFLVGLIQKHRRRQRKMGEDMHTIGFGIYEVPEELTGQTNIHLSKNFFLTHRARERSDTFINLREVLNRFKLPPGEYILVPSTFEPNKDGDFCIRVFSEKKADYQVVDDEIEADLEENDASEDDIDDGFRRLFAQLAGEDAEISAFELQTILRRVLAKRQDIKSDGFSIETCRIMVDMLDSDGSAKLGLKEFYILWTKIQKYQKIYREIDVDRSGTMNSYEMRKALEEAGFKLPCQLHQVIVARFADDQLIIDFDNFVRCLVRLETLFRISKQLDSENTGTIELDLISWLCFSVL
As to the kind of experiment: pig calpain II inhibitor potency, dose response, biochemical, fluorogenic peptide substrate (AID 1420). In kind it is functional.

The target of data set [8] is T1, Cytochrome P450 3A4. As to conditions: Potency.
The target of data set [9] is Voltage-gated inwardly rectifying potassium channel KCNH2 (Homo sapiens, UniProt Q12809). As to conditions: Potency.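 Also: confirmatory quantitative high-throughput screen measuring inhibition of hERG channel activity.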
Voltage-gated inwardly rectifying potassium channel KCNH2, sequence (Q12809 whole entry): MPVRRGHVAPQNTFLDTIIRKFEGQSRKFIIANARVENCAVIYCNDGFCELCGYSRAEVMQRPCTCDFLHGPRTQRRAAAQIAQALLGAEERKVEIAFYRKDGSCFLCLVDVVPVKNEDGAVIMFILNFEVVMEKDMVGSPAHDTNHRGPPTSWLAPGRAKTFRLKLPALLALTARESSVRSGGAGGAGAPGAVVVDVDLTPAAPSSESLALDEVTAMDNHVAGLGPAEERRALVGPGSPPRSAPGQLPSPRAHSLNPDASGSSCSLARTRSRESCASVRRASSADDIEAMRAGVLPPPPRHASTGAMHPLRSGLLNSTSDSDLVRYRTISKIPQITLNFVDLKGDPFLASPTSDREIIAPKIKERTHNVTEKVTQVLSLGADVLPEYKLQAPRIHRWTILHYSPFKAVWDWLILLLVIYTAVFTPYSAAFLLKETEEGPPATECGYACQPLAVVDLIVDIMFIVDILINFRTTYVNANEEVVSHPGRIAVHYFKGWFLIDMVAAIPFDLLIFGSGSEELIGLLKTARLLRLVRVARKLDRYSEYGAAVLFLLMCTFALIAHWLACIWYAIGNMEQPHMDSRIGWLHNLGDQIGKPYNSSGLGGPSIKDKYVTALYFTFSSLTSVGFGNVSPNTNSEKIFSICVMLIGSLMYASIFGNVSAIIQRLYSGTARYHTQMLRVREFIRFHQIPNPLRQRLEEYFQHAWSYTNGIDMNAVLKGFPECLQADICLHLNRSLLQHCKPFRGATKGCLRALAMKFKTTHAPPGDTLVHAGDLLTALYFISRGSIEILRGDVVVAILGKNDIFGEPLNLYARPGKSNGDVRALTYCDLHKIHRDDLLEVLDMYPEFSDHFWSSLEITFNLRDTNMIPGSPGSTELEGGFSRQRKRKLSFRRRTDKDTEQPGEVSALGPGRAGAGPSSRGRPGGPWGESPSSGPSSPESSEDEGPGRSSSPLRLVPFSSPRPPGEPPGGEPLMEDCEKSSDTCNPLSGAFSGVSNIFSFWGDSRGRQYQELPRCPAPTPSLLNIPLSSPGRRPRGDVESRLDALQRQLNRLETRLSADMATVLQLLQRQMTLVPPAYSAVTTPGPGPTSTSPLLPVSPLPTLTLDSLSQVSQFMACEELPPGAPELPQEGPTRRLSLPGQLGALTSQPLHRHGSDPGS
Data set [10] addresses T6, Nuclear receptor subfamily 0 group B member 1 (Homo sapiens, UniProt P51843).
T6 sequence (P51843 whole entry): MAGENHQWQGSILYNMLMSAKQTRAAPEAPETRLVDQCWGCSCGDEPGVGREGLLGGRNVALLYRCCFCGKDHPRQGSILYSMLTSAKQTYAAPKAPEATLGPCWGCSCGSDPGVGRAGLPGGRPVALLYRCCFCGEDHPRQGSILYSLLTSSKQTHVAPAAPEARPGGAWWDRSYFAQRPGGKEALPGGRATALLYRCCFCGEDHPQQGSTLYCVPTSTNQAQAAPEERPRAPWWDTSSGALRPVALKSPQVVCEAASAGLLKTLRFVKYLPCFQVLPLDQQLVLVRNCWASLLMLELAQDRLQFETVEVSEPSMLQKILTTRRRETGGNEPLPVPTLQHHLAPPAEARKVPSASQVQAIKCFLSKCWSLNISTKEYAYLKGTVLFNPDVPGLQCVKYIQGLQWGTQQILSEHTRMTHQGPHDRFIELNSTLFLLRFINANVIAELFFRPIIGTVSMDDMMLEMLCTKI
As to the kind of experiment: Luminescence-based cell-based high throughput dose response assay for inhibitors of the orphan nuclear receptor subfamily 0, group B, member 1 (DAX1; NR0B1). [Related pubchem assays (depositor defined):AID504766, AID504790]. In kind it is functional.

Another data set concerns HEK293. As to the kind of experiment: cells. In kind it is functional, cell-based. To be noted: Homo sapiens.
The target in another data set is Cytochrome P450 2D6 (Homo sapiens, UniProt P10635).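 Also: CYP2D6 member of a cytochrome P450 panel assay.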
Cytochrome P450 2D6, sequence (P10635 whole entry): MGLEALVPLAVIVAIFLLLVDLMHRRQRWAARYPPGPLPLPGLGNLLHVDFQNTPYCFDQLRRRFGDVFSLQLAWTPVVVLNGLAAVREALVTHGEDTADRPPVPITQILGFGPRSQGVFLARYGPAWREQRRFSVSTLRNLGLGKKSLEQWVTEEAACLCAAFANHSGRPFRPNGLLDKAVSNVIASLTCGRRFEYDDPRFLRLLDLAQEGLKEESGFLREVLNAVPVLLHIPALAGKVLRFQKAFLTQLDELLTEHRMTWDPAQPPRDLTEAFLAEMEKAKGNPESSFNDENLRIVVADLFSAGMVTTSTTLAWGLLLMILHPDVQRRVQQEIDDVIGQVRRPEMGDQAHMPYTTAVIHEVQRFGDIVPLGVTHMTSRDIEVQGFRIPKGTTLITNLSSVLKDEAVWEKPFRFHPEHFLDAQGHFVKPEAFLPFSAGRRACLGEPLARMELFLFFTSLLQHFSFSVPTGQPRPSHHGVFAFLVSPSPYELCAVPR

Structures are written as SMILES. The source made the active and inactive calls.

T1 sequence (P08684 whole entry): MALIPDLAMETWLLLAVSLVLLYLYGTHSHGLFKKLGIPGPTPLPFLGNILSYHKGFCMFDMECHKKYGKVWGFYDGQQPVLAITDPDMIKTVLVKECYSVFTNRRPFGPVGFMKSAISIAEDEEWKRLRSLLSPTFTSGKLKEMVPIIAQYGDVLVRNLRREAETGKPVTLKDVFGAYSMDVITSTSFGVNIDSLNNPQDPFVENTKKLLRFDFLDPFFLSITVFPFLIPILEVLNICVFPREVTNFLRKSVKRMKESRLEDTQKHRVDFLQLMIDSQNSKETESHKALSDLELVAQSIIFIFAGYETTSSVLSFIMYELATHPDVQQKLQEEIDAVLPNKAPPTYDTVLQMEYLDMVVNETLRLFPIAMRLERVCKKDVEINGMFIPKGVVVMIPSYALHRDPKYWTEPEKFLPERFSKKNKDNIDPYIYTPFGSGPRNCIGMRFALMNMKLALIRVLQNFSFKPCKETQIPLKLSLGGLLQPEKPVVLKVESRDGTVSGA
Glucose-6-phosphate 1-dehydrogenase, sequence (P11413 whole entry): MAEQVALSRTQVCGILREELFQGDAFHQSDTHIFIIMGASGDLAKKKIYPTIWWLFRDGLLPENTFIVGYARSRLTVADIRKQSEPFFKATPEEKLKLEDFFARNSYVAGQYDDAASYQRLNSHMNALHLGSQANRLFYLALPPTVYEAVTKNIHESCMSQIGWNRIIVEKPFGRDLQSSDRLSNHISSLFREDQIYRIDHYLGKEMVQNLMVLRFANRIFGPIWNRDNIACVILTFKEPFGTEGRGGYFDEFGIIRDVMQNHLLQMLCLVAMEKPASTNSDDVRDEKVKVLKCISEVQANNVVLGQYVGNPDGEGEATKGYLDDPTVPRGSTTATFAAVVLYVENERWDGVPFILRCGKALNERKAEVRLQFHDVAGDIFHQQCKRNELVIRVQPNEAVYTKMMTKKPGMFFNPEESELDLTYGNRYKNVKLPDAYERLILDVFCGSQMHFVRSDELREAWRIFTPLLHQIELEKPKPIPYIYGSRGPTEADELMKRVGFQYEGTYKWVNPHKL
Disintegrin and metalloproteinase domain-containing protein 17, sequence (P78536 whole entry, the tested form may be a part): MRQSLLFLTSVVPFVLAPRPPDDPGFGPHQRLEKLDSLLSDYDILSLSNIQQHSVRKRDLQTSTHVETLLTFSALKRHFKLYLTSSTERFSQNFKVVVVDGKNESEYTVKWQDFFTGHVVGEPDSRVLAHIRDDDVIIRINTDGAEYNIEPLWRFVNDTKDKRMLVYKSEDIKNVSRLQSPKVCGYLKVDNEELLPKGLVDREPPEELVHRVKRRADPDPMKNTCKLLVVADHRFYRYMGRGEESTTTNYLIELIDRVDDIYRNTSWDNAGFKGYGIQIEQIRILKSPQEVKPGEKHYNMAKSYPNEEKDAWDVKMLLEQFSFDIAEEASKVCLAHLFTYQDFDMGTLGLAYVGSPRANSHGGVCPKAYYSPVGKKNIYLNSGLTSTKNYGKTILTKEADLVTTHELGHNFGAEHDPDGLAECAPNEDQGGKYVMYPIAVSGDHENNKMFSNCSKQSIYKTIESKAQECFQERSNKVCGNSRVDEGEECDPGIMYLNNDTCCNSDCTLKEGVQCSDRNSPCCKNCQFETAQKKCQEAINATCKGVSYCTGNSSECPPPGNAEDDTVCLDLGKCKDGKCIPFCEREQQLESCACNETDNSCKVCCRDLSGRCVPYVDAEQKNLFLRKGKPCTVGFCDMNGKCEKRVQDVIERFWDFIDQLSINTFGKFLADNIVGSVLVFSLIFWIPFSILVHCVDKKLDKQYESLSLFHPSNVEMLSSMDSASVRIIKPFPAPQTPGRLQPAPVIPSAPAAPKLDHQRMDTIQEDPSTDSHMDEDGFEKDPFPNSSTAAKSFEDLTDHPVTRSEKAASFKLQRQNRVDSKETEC

On to `COc1ccc(CN(C)S(=O)(=O)c2nnc(NC(=O)c3ccc(C)cc3)s2)cc1OC`, for which the IC50 in data set [1] was 46 µM (inactive).
Take `O=C(Oc1ccccc1)N1CCC2(CC1)CCN(c1cccc(-c3ccccc3)c1)CC2`: the AC50 (usually the concentration giving half of the maximal activity seen) on Cytochrome P450 3A4 [2] was “inconclusive”; at Cytochrome P450 1A2, 12.6 µM (inconclusive).
Turning to `S=c1[nH]nc(-c2sccc2OCc2ccc(Cl)cc2Cl)[nH]1`, the IC50 in data set [3] was > 66 µM (inactive); in data set [4], > 69.5 µM (inactive); in [5] it was > 66 µM (inactive); in data set [6], 11.5 µM (active); in data set [7], 10.1 µM (not active).
With `Nc1ccccc1C(=O)OCCc1ccccc1`, the half-maximal activity concentration (AC50) on Cytochrome P450 3A4 [8] was 12.6 µM (inconclusive); in [9], 39.8 µM (inconclusive).
Consider `COCCCNC(=O)c1ccc(CN2CCc3ccccc3C2)cc1`, for which the IC50 (in [10]; in the data set with HEK293) was > 67.5 µM (inactive) in each case.
With `CCc1c(C)[nH]c2c1C(=O)[C@H](CN1CCOCC1)CC2.Cl` [MOLINDONE HYDROCHLORIDE], the AC50 result at Cytochrome P450 2D6 is “inactive”.
Regarding `COc1cccc(CN2C(=O)N(C(C)C)C(N(O)C(=O)NC(C)C)C2(C)C)c1OC` (configuration not stated), the half-maximal activity concentration (AC50) result at Cytochrome P450 2D6 is “inconclusive”.
On to `O=C(/C=C/c1ccc2c(c1)OCCO2)c1ccc(O)cc1`, for which the IC50 is > 67.6 µM (inactive) in data set [10] and > 2.5 µM (active) in the data set on HEK293.
For `N#Cc1ccc(Oc2cccc3cccnc23)c([N+](=O)[O-])c1`, in data set [1], the IC50 was > 80 µM (inactive).
